# Reference: patent US20030162972A1, “Pyridyl alkane acid amides as cytostatics and immunosupressives” (Klinge Pharma GmbH, priority 1996, published 2003)
# Assays:
# [1] = system: HepG2 cells; test: Growth inhibition of HepG2 cells, six days of substance incubation, sulforhodamin-B protein determination; type: cell-based; conditions: Homo sapiens, 144 h
# Procedure: (§1) HepG2 cells plated at a density of 20,000 cells/ml in 12-well plastic dishes. Cultivation occured in Richters IMEM-ZO nutrient medium with 5% fetal calf serum (FCS) in a tissue culture incubator with a gas mixture of 5% CO2 and 95% air at a temperature of 37° C. One day after planting, the culture medium was aspirated from the cells and replaced by fresh medium which contained the respective concentrations of the test substances. For the individual concentrations and the controls without test substances, three-fold batches were done for each. Three days after the beginning of treatment, the medium was again renewed with the test compounds. After six days of substance incubation, the test was ended and the protein amount in the individual wells was determined with the sulforhodamin-B-method (according to P. Skehan et al: New Colorimetric Cytotoxicity Assay for Anticancer-Drug Screening. J. Natl. Cancer Inst. 82:1107-1112, 1990). The IC50-values (defined as that concentration in which the cell growth was inhibited by 50%) was taken from the dose-response curves and given as a comparative measurement for the activity of the test compounds.
# [2] = system: various human tumor cells; test: In vitro activity of compound Nr. 54 on various human tumor cells; type: cell-based
# Procedure: as §1
# The compounds of formula (I) and their salts permit a therapeutic use in malignant illnesses of humans and animals through their excellent inhibition of the growth of tumor cells. The anti-neoplastic activity of the described substances can be used for prophylactic, adjunct, palliative, and curative treatment of solid tumors, leukemic illnesses and lymphomas as well as for decreasing or preventing metastasis formation in humans and animals. The therapeutic use is possible in the following illnesses for example: gynecological tumors, such as of the uterus or the vagina, ovarian carcinomas, testicle tumors, prostate carcinomas, skin cancer, kidney cancer, bladder tumors, esophagus carcinomas, stomach cancer, rectal carcinomas, pancreas carcinomas, thyroid cancer, adrenal tumors, leukemia and lymphomas, such as Hodgkin's disease, tumor illnesses of the CNS, soft-tissue sarcomas, bone sarcomas, benign and malignant mesotheliomas, but especially intestine cancer, liver cancer, breast cancer, bronchial and lung carcinomas, melanomas, acute and chronic leukemias. Thereby, benign papillomatosis tumors are also considered for therapy. The broad activity of the new compounds was tested in vitro on various human tumor cells Thereby, the following IC50 values were obtained for compound Nr.
# [3] = system: freshly isolated lymphocytes; test: Immunosuppressing activity: vitality of freshly isolated spleen lymphocytes after 2 days, flow-through cytometry (propidium iodide / 3,3'-dihexyloxacarbocyanin iodide); type: cell-based; conditions: Lymphocyte, 48 h; Swiss mouse spleen lymphocytes, vital cells after 2 days, flow-through cytometer
# Source text: Many anti-tumor agents have not only a cytotoxic effect on tumor cells, but also on the blood cell system. This leads to a weakening of the immune defence, which can, in turn, be specifically employed to suppress the rejection reaction after an organ transplantation for example. Therefore, a use of the main compounds, optionally in combination with other compounds effective for these indications is suitable in diseases such as psoriasis or autoimmune diseases. In order to test the possibility for a therapeutic use in illnesses of this type, the substance activity was tested on freshly isolated lymphocytes as follows: […]
# The cells were plated at a density of ca. 500,000 cells/well/ml in a 12-well plate, 1 ml doubly concentrated test substance solution was pipetted per well and this was subsequently incubated in a tissue culture incubator at 37° C. and 5% CO2. […] Subsequently, 10,000 cells per each sample were measured on a flow-through cytometer and the percentage amount of vital cells in the population was determined. By means of the dose-response curves, IC50-values were calculated which were also employed in the following Tables for the characterization of the individual substances: […]
IC50 [1] [nM],melting point [°C],SMILES,other results
30,112 to 114,"O=C(CCc1cccnc1)NCCCCCC1CCN(C(c2ccccc2)c2ccccc2)CC1 [Substance 101, N-[5-(1-diphenylmethyl-piperidin-4-yl)-pentyl]-3-(pyridin-3-yl)-propionamide]",–
–,159 to 161,"O=C(CCc1cccnc1)NCCCCNC(=O)C1CCCN(C(c2ccccc2)c2ccccc2)C1 (stereo not drawn) [Substance 106, N-[4-(1-diphenylmethyl-piperidin-3-yl-carbonylamino)-butyl]-3-(pyridin-3-yl)-propionamide]",–
–,72 to 74,"CCN(CCCCC1CCN(C(c2ccccc2)c2ccccc2)CC1)C(=O)CCc1cccnc1 [Substance 68, N-[4-(1-diphenylmethyl-piperidin-4-yl)-butyl]-N-ethyl-3-(pyridin-3-yl)-propionamide]",–
–,72 to 74,"O=C(CCc1cccnc1)NCCCCC1CCN(C(=O)c2ccccc2)CC1 [Substance 162, N-[4-(1-benzoylpiperidin-4-yl)-butyl]-3-(pyridin-3-yl)-propionamide]",–
80,103 to 105,"O=C(COc1cccnc1)NCCCCC1CCN(C(c2ccccc2)c2ccccc2)CC1 [Substance 84, N-[4-(1-diphenylmethyl-piperidin-4-yl)-butyl]-2-(pyridin-3-yloxy)-acetamide]",–
20,–,"O=C(CCc1cccnc1)NCCCCC1CCN(C(c2ccccc2)c2ccccc2)CC1 [Substance 54, N-[4-(1-diphenylmethyl-piperidin-4-yl)-butyl]-3-(pyridin-3-yl)-propionamide]","IC50 ([2]; MCF7, cell line MCF-7, ER-positive mammacarcinoma): 80 nM; IC50 ([2]; cell line HT-29, colon carcenoma): 80 nM; IC50 ([2]; cell line HepG2, hepatocellular carcinoma): 20 nM; IC50 ([2]; cell line Namalwa, Burkitt's lymphoma): 50 nM; IC50 ([2]; cell line Saos-2, osteosarcoma): 20 nM; IC50 ([2]; cell line THP-1, monocytic leukemia): 30 nM; IC50 [3]: 3 nM"
